In paper PMC9000575, “Solution Equilibrium Studies on Salicylidene Aminoguanidine Schiff Base Metal Complexes: Impact of the Hybridization with L-Proline on Stability, Redox Activity and Cytotoxicity” (Molecules, 2022):
Marks after values point to notes of the source that are not given here.

Tests used:
Type in all cases: physicochemical
[1] = n-octanol/water distribution coefficient, shake-flask; settings: n-octanol/buffered aqueous solution, pH 7.4; n-octanol/H2O, pH 7.40, 25 °C, 0.10 M KCl; read-out: logD7.4
Description: Distribution coefficients (D7.4) values were determined by the traditional shake-flask method in n-octanol/buffered aqueous solution at pH 7.40 (20 mM HEPES, 0.10 M KCl) at 25.0 ± 0.2 °C as described previously.

[2] = stability constants of Fe(II) complexes by pH-potentiometry; settings: 30% (v/v) DMSO/H2O; for logβ [Fe(II)LH−1] / logβ [Fe(II)LH−2]− / logβ [Fe(II)L]+: 25 °C, I = 0.10 M (KCl), anaerobic; for pFe(II) (−log[Fe(II)]): calculated at pH 7.4, cFe = 1 μM, cligand = 10 μM
Description: Complexation with Fe(II) was studied under strictly anaerobic conditions. […] Aside from the better solubility of the Pro-SISC-Me complexes, the two ligands behaved similarly and the difference between their Fe(II)-binding efficacy was minor.
The pH-potentiometric measurements for the determination of the proton dissociation constants of the ligands and the overall stability constants of the metal complexes were carried out at 25.0 ± 0.1 °C in water or in 30% (v/v) DMSO/H2O as solvent and at an ionic strength of 0.10 M (KCl). The titrations were performed with carbonate-free KOH solution of known concentration (0.10 M). The concentrations of the base and the HCl were determined by pH-potentiometric titrations. An Orion 710A pH-meter equipped with a Metrohm combined electrode (type 6.0234.100), and a Metrohm 665 Dosimat burette were used for the titrations. […] The average water ionization constant pKw was 13.76 ± 0.05 (water) or 14.52 ± 0.05 (30% (v/v) DMSO/H2O). The pH-potentiometric titrations were performed in the pH range 2.0–12.5. The initial volume of the samples was 10.0 mL. The ligand concentration was 2 mM and metal ion-to-ligand ratios of 1:1–1:3 were used. The accepted fitting of the titration curves was always less than 0.01 mL. Argon was always passed over the solutions during the titrations. The exact concentration of the ligand stock solutions together with the proton dissociation constants were determined by pH-potentiometric titrations with the use of the computer program HYPERQUAD [44]. It was also utilized to establish the stoichiometry of the complexes and to calculate the stability constants (β(MpLqHr)). β(MpLqHr) is defined for the general equilibrium pM + qL + rH ⇋ MpLqHr as β(MpLqHr) = [MpLqHr]/[M]^p[L]^q[H]^r, where M denotes the metal ion and L the completely deprotonated ligand. In all calculations exclusively, titration data were used from experiments in which no precipitate was visible in the reaction mixture.

[3] = cyclic voltammetry of the iron complexes; settings: for cathodic peak potential of the iron complexes at pH 7.6: pH 7.6, 1:2 metal-to-ligand, E vs. Ag/AgCl/KCl (Figure S13b)
Text: Further differences were observed when the redox behavior of the iron complexes was monitored by cyclic voltammetry. In the case of SISC, only a cathodic peak could be observed in the pH range of the formation of the Fe(III) complexes (not shown), unlike for Pro-SISC-Me (Figure 8b), where quasi-reversible processes could be seen in a wide pH range (3.9–10.8). The cathodic peak measured at pH 7.6 was located at much lower potential than in the case of the SISC complex (−0.59 V vs. −0.38 V, Figure S13b). […] To reveal the coordination mode in the Fe(III)-Pro-SISC-Me complexes, crystallization experiments were performed and single crystals were obtained for the Na[Fe(III)(Pro-SISC-MeH−2)2](H2O)4 complex.
Cyclic voltammograms of the Cu(II) and Fe(III) complexes in 30% (v/v) DMSO/H2O containing 1 mM Cu(NO3)2 or 1 mM or 0.5 mM FeCl3 and 1 mM ligand were recorded at 25.0 ± 0.1 °C. Ionic strength was 0.10 M (TBAN). Measurements were performed on a conventional three-electrode system under nitrogen atmosphere using an Autolab PGSTAT 204 potentiostat/galvanostat monitored by Metrohm’s Nova software (Metrohm Autolab B.V., Utrecht, The Netherlands). Samples were purged with argon for 15 min before recording the cyclic voltammograms. Platinum electrodes were used as the working and auxiliary electrode and Ag/AgCl/3 M KCl as a reference electrode. The electrochemical system was calibrated with an aqueous solution of K3[Fe(CN)6] (E1/2 = +0.386 V vs. NHE).

[4] = proton dissociation constants by 1H NMR titration
Description: ^1H NMR spectra recorded for SISC in 30% (v/v) d6-DMSO/H2O (Figure S3) clearly show two deprotonation steps and all the CH protons are sensitive to the changes of the pH. Similarly, the changes in the chemical shifts of the peaks of the aromatic CH and the CH=N protons indicate two steps in the ^1H NMR spectra of Pro-SISC-Me recorded in water (Figure 3a), thus two pKa values were calculated (pK2, pK3 in Table 1). However, this is only true for the major species identified as the E isomer (Figure 3b), while for the other isomer (Z, Figure 3c) only one pKa (7.55 ± 0.02) could be determined. The E and Z geometric isomers are the consequence of the C=N double bond. […] Based on the integrals of the CH=N peaks, the fraction of the E isomer is 86% at pH < 6.5, and it is decreased to 82% reaching pH 11.5; however, the appearance of further minor peaks at pH > 9.8 indicates the presence of other species in low fraction. The same picture is seen when the changes of the CH3 peaks are considered (Figure S4), and only the peak of the CH-COOH proton was sensitive to the first deprotonation process at pH < 3, which confirms that pK1 of Pro-SISC-Me applies to COOH.
The ^1H NMR studies for the ligands were carried out on a Bruker Ultrashield 500 Plus instrument (Billerica, MA, USA). DSS was used as an internal NMR standard and WATERGATE water suppression pulse scheme was used. Spectra were recorded in 10% (v/v) D2O/H2O or in 30% (v/v) DMSO-d6/H2O solvent mixtures in a concentration of 1 mM, respectively, at ionic strength of 0.10 M (KCl).

[5] = proton dissociation constants by UV-vis spectrophotometric titration; settings: for pK2 (H2L+) / pK3 (HL): Pro-SISC-Me; for pK1 (H2L+) / pK2 (HL): SISC
Description: An Agilent Cary 8454 diode array spectrophotometer (Agilent Technologies, Santa Clara, CA, USA) was used to record the UV-vis spectra at an interval of 200–800 nm. The path length was 1 or 2 cm. Spectrophotometric titrations were performed in water or in 30% (v/v) DMSO/H2O on samples containing the ligands at 50 μM–1 mM concentration, in the pH range from 1.0 to 12.5 in the absence or in the presence of 1 or 0.5 or 0.33 equiv. metal ions. Ka values of the ligands and the UV-vis spectra of the individual species were calculated by the computer program PSEQUAD [45].

[6] = Pro-SISC-Me, H2O, major species (E isomer)

Cc1cc(C=NNC(=N)N)c(O)c(CN2CCCC2C(=O)O)c1 (stereo not shown) [Pro-SISC-Me]
logD [1]: -0.88 ± 0.05 | logβ [Fe(II)LH−1] [2]: −1.08 ± 0.05 | logβ [Fe(II)LH−2]− [2]: <−11 | logβ [Fe(II)L]+ [2]: 6.83 ± 0.04 | pFe(II) (−log[Fe(II)]) [2]: 6.1 | E1/2 of the Fe(III)/Fe(II) redox couple of the iron complexes ([3]; 30% (v/v) DMSO/H2O, 1:2 metal-to-ligand ratio): −0.32 V vs. NHE | cathodic peak potential of the iron complexes at pH 7.6 ([3]; 30% (v/v) DMSO/H2O): −0.59 V | pK1 (H3L2+) [4, 6]: ≤2.5 ^c | pK2 (H2L+) [4, 6]: 7.25 ± 0.03 ^c | pK3 (HL) [4, 6]: 9.75 ± 0.03 ^c | pKa ([4]; water, only one pKa could be determined, read-out: pKa of the minor (Z) isomer): 7.55 | pK2 (H2L+) ([5]; 30% DMSO/H2O): 7.07 ± 0.03 | pK3 (HL) ([5]; 30% DMSO/H2O): 9.84 ± 0.03 | pK2 (H2L+) ([5]; H2O): 7.30 ± 0.03 | pK3 (HL) ([5]; H2O): 9.67 ± 0.03

N=C(N)NN=Cc1ccccc1O [SISC, 2-(2-hydroxybenzylidene)hydrazinecarboximidamide]
logD [1]: 0.83 | logβ [Fe(II)LH−1] [2]: −0.73 ± 0.07 | logβ [Fe(II)LH−2]− [2]: −8.94 ± 0.08 | logβ [Fe(II)L]+ [2]: 7.20 ± 0.06 | pFe(II) (−log[Fe(II)]) [2]: 6.0 | cathodic peak potential of the iron complex (only a cathodic peak) ([3]; [Fe(III)L2]+ complex): −0.17 V vs. NHE | cathodic peak potential of the iron complexes at pH 7.6 ([3]; 30% (v/v) DMSO/H2O): −0.38 V | pK1 (H2L+) ([4]; SISC, 30% DMSO/H2O): 7.68 ± 0.03 | pK2 (HL) ([4]; SISC, 30% DMSO/H2O): 10.72 ± 0.03 | pK1 (H2L+) ([5]; 30% DMSO/H2O): 7.56 ± 0.03 | pK2 (HL) ([5]; 30% DMSO/H2O): 10.67 ± 0.03 | pK1 (H2L+) ([5]; H2O): 7.64 ± 0.03 | pK2 (HL) ([5]; H2O): 10.12 ± 0.03
